{
  "source": "patent US9914727B2",
  "about": "“Factor IXa inhibitors” (Merck Sharp & Dohme Corp., priority 2012, dated 2018)",
  "data": [
    {"target": "Factor IXa (Homo sapiens, UniProt P00740)", "sequence (P00740 227-461 limits assumed)": "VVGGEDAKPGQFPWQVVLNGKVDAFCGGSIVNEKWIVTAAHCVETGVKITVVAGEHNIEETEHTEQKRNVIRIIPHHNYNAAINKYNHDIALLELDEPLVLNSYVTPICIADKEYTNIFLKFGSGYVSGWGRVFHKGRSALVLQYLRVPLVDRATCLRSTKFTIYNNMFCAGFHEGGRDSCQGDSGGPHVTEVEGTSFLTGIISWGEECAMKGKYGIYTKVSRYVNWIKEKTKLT", "sequence (P00740 47-191 partner limits assumed)": "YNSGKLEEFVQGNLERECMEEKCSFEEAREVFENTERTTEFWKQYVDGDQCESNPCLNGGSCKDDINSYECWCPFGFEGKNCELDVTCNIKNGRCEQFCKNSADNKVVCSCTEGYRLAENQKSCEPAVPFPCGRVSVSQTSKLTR", "test": "Determination of inhibitory activity against Factor IXa (FIXa Low Enzyme; cleavage of fluorescent peptide CH3SO2-D-CHG-Gly-Arg-AFC)", "assay_type": "biochemical", "settings": "fluorogenic peptide substrate CH3SO2-D-CHG-Gly-Arg-AFC.AcOH; excitation 405, emission 510", "procedure": "Determination of Inhibitory Activity Against Factor IXa\nFormation of a clot to stem bleeding at a site of blood vessel injury involves the coordinated activity of a group of plasma proteins that initiate and propagate fibrin formation and subsequently protect fibrin from premature degradation. Factor IX is a key component of the plasma system that forms a fibrin clot at a site of vascular injury. The activity of Factor IXa is measured by monitoring the cleavage of the fluorescent peptide, CH3SO2-D-CHG-Gly-Arg-AFC.AcOH (“CHG” is cyclohexyl-glycine and “AFC” is trifluoro aminomethyl coumarin). Factor IXa cleaves the […] bond between Arg and AFC, thereby releasing the AFC fluorophore. The free AFC can be detected with a fluorescence detector at an excitation wavelength of 405 nm and emission wavelength of 510 nm.", "units": {"FIXa Low Enzyme": "nM"}, "values": [
      {"smiles": "C[C@](O)(c1nc(=O)c2c(ccc3c(N)nsc32)[nH]1)[C@H]1OCCN(c2cccc(C(F)(F)F)n2)C1=O", "note": "[Example 3, (R)-2-((S)-1-(3-Amino-9-oxo-6,9-dihydroisothiazolo[5,4-f]quinazolin-7-yl)-1-hydroxyethyl)-4-(6-(trifluoromethyl)pyridin-2-yl)morpholin-3-one]", "FIXa Low Enzyme": 577.9},
      {"smiles": "C[C@]1([C@@H](O)c2nc(=O)c3c(ccc4c(N)nsc43)[nH]2)OCCN(c2ccn(-c3ccnnc3)n2)C1=O", "note": "[Example 2, (R)-2-((S)-(3-Amino-9-oxo-6,9-dihydroisothiazolo[5,4-f]quinazolin-7-yl)(hydroxy)methyl)-2-methyl-4-(1-(pyridazin-4-yl)-1H-pyrazol-3-yl)morpholin-3-one]", "FIXa Low Enzyme": 8.597},
      {"smiles": "CC(C)(O)c1cccc(N2CCO[C@](C)([C@@H](O)c3nc(=O)c4c(ccc5c(N)nsc54)[nH]3)C2=O)n1", "note": "[Example 4, (R)-2-((S)-(3-Amino-9-oxo-6,9-dihydroisothiazolo[5,4-f]quinazolin-7-yl)(hydroxy)methyl)-4-(6-(2-hydroxypropan-2-yl)pyridin-2-yl)-2-methylmorpholin-3-one]", "FIXa Low Enzyme": 352.7},
      {"smiles": "C[C@]1([C@@H](O)c2nc(=O)c3c(ccc4c(N)nsc43)[nH]2)OCCN(c2ccn(-c3ccc(=O)n(C(F)F)c3)n2)C1=O", "note": "[Example 1, (R)-2-((S)-(3-Amino-9-oxo-6,9-dihydroisothiazolo[5,4-f]quinazolin-7-yl)(hydroxy)methyl)-4-(1-(1-(difluoromethyl)-6-oxo-1,6-dihydropyridin-3-yl)-1H-pyrazol-3-yl)-2-methylmorpholin-3-one]", "FIXa Low Enzyme": 102.1}
    ]}
  ]
}
